Reference: patent publication US20060104969A1, “Compositions and methods for enhancing structural and functional nervous system reorganization and recovery” (Massachusetts Institute of Technology, priority 2004, published 2006)

B1: plasmin (protein, UniProt P00747 20-580; P00747 581-810, looked up)
Plasmin heavy chain A: EPLDDYVNTQGASLFSVTKKQLGAGSIEECAAKCEEDEEFTCRAFQYHSKEQQCVIMAENRKSSIIIRMRDVVLFEKKVYLSECKTGNGKNYRGTMSKTKNGITCQKWSSTSPHRPRFSPATHPSEGLEENYCRNPDNDPQGPWCYTTDPEKRYDYCDILECEEECMHCSGENYDGKISKTMSGLECQAWDSQSPHAHGYIPSKFPNKNLKKNYCRNPDRELRPWCFTTDPNKRWELCDIPRCTTPPPSSGPTYQCLKGTGENYRGNVAVTVSGHTCQHWSAQTPHTHNRTPENFPCKNLDENYCRNPDGKRAPWCHTTNSQVRWEYCKIPSCDSSPVSTEQLAPTAPPELTPVVQDCYHGDGQSYRGTSSTTTTGKKCQSWSSMTPHRHQKTPENYPNAGLTMNYCRNPDADKGPWCFTTDPSVRWEYCNLKKCSGTEASVVAPPPVVLLPDVETPSEEDCMFGNGKGYRGKRATTVTGTPCQDWAAQEPHRHSIFTPETNPRAGLEKNYCRNPDGDVGGPWCYTTNPRKLYDYCDVPQCAAPSFDCGKPQVEPKKCPGR
Plasmin light chain B: VVGGCVAHPHSWPWQVSLRTRFGMHFCGGTLISPEWVLTAAHCLEKSPRPSSYKVILGAHQEVNLEPHVQEIEVSRLFLEPTRKDIALLKLSSPAVITDKVIPACLPSPNYVVADRTECFITGWGETQGTFGAGLLKEAQLPVIENKVCNRYEFLNGRVQSTELCAGHLAGGTDSCQGDSGGPLVCFEKDKYILQGVTSWGLGCARPNKPGVYVRVSRFVTWIEGVMRNN
modifications: Plasmin
notes: serine protease whose major substrate is fibrin (Sigma)

Tests used:
axon growth = conditions: cited from earlier work
[1] = tested on: rats with spinal cord injury (SCI); test: Recovery of locomotor function (BBB scale) after T10 contusive spinal cord injury; type: in vivo, Sprague-Dawley rats
Source text: FIGS. 8A and 8B show the effect of tPA on recovery of locomotor function graded on the BBB scale (y-axis; Basso et al., 1995 J. Neurotrauma) that ranges from 21 in normal rats to 0 in rats with complete hind limb paralysis. FIG. 8A presents a time course in which data points represent the group average±SEM (n=3/group) scored at different time points post T10 contusive injury. […] The dip of the curves starting at week 7 in both of the experimental groups was caused by the intra-cerebral cortex injections of axonal tract tracer BDA which was done at week 6 after injury. FIG. 8B presents a bar graph showing results of a second experiment in which data points represent the group average±SEM (n=7/group).
In a first set of experiments, 6 female Sprague-Dawley rats were anesthetized and spinal cord injury (SCI) was induced at TIO by using the New York University impactor with a 10 gm weight and a 12.5 mm weight drop. Behavioral tests were conducted on the first post-operative day and then weekly. The BBB (Basso, Beattie, Bresnahan) behavioral test was used to examine hind limb reflexes as well as coordinated use of the hind limbs (Basso et al., 1995; Basso, et al., 1996). This “BBB” scale has been adopted by the Multicenter Animal Spinal Cord Injury Study and by other workers in the field. […]

[2] = tPA activity in the solution remaining in implanted minipumps; type: physicochemical; conditions: rat body temperature; delivered from a minipump reservoir
Protocol: Three days post-operatively, a second operation was conducted at T8-T9 for a bolus micro-injection of 10 μg of tPA (human two-chain tissue plasminogen activator; American Diagnostica, Inc.) reconstituted from lyophilized powder to 10 μg/10 μL) into three of the six rats. Following the bolus injection, an osmotic minipump (Alzet Model 2002: 14 day pump) (Durect Corp., Cupertino, Calif.) loaded with tPA (200 μL total volume, delivering 0.5 μL/hour, 10 μg tPA/day) was implanted at the side of injury and delivered tPA for 10 consecutive days. At the 6th post-operative week, BDA and Fluorogold injections were made in cortex to assess the extent of corticospinal tract regrowth and reconnection, and at the 10th post-operative week, animals were perfused and their spinal cords were removed for histological analysis. Implanted minipumps were saved for analysis of tPA activity in the remaining solution.

[3] = tested on: rats with middle cerebral artery occlusion (MCAO); test: Forelimb inhibition behavioral test after middle cerebral artery occlusion (MCAO); type: in vivo; conditions: intraventricular infusion 2 or 10 μg/day for 7 days, started 2 days after MCAO
Protocol: Twenty rats were trained on a battery of behavioral tasks until they achieved an asymptotic level of competence. Rats then received occlusion of the middle cerebral artery (MCAO) according to standard procedures. […] At the time of MCAO surgery, 10 of the 20 rats were also implanted with an osmotic mini-pump (Alzet model 2001, 7 day pump with […] and 1.0 μL/hour infusion) for intraventricular infusion contralateral to the site of the MCAO. The mini-pumps were filled with human two-chain tissue plasminogen activator (tPA; American Diagnostica, Inc.) at two different concentrations: 5 animals received 2 μg/day and 5 animals received 10 μg/day. tPA treatment was initiated 2 days following MCAO and was maintained for 7 days. Control and tPA-treated rats were subsequently tested weekly for behavioral recovery.
Initial results regarding one of the behavioral tests, forelimb inhibition, are striking. Normal animals rarely use their forelimbs while swimming across a test basin, a phenomenon referred to as “inhibition”. After stroke, this inhibition is reduced, so that forelimb use increases. […] On other tests, there was less difference between tPA treated animals and controls though this and other data is still being analyzed.

[4] = tested on: dendritic spines of layer V pyramidal neurons in visual cortex slices; test: Spine motility in acute visual cortex slices before and after enzyme application (two-photon imaging); type: cell-based, mice; conditions: p28 non-deprived slices; 45 minute enzyme application; tPA 0.5 μg/mL without exogenous plasminogen, plasmin 0.2 U/mL; p<0.0001
Protocol: Two photon imaging. Mice were prepared for in vivo imaging and imaged as described previously (Majewska and Sur, 2003). Briefly, primary visual cortex was identified using stereotaxic coordinates and either a small craniotomy was drilled in this area, or the skull was thinned without making a craniotomy. Imaging was performed with a custo m-made two-photon microscope consisting of a Ti:S laser (Tsunami, Spectra-physics, Menlo Park, Calif.) pumped by a 10W solid state source (Millennia, Spectra-physics) coupled to a modified Fluoview confocal scanhead (Olympus, Melville, N.Y.). Superficial dendrites were initially identified with wide-field epi-fluorescence illumination, and were subsequently imaged using a 60×, 0.9 N.A. lens with digital zoom (5-10×). Volumetric z-stacks were typically collected with a 800×600 acquisition window with 0.5-1 μm z-steps every five minutes over two hours. […]
Z-stack images were exported to MATLAB (Mathworks, Natick, Mass.) and processed using custom algorithms. Spine motility was analyzed on two-dimensional projections in ImageJ (NIH, Bethesda, Md.), where motility was defined as the average change in spine length per unit time (Lendvai et al., 2000; Majewska and Sur, 2003). […]

[5] = tested on: spinal cord injury epicenter tissue; test: Histological analysis of the spinal cord injury epicenter (hematoxylin and eosin, solvent blue); type: in vivo, Sprague-Dawley rats
Source text: FIG. 9 presents micrographs showing the overall microscopic difference in injury epicenter pathology between rats receiving tPA or vehicle in the area of residual total tissue (hematoxylin and eosin stain).
FIG. 10 presents micrographs showing the overall difference between rats receiving tPA (left panel) or vehicle (right panel) in the typical cross-sectional area of residual total white matter (WM) at the injury epicenter (e.g. WM+hypomyelinated WM). […] In contrast, SB stain in the vehicle treated spinal cord was much weaker, indicating much lower quantity presence of myelin in the tissue.
Sections were stained with solvent blue [SB]/hematoxylin and eosin as described in Teng and Wrathall, 1997.
Three days post-operatively, a second operation was conducted at T8-T9 for a bolus micro-injection of 10 μg of tPA (human two-chain tissue plasminogen activator; American Diagnostica, Inc.) reconstituted from lyophilized powder to 10 μg/10 μL) into three of the six rats. Following the bolus injection, an osmotic minipump (Alzet Model 2002: 14 day pump) (Durect Corp., Cupertino, Calif.) loaded with tPA (200 μL total volume, delivering 0.5 μL/hour, 10 μg tPA/day) was implanted at the side of injury and delivered tPA for 10 consecutive days. […]

[6] = tested on: dendritic spines in visual cortex slices contralateral to the deprived eye; test: Spine motility in visual cortex slices after monocular deprivation, followed by plasmin application (occlusion test); type: cell-based, mice
Protocol: Mice (C57/B16) expressing GFP (strain GFP-M) or YFP (strain YFP-H) in a subset of their cortical neurons (principally layer V pyramidal neurons) (Feng, G., et al., 2000) were anesthetized at postnatal days 26 or 40 and maintained in deep anesthesia using isoflurane. Monocular deprivation was performed by scoring the eyelids and then sealing them shut with tissue adhesive (Vetbond, 3M, St. Paul, Minn.). Mice were checked over the next 2-3 days to ensure that the eye remained closed. A total of 18 mice were used in the in vivo experiments (6 control, 4 deprived at p28; 4 control, 4 deprived at p42) and 24 mice were used in the slice experiments (15 control, 9 deprived).
Z-stack images were exported to MATLAB (Mathworks, Natick, Mass.) and processed using custom algorithms. Spine motility was analyzed on two-dimensional projections in ImageJ (NIH, Bethesda, Md.), where motility was defined as the average change in spine length per unit time (Lendvai et al., 2000; Majewska and Sur, 2003). Spine turnover was rarely observed in single imaging sessions. All values are presented as mean±standard error of the mean and all statistical analyses were performed using either a parametric t-test statistic for populations of monocularly deprived and control spines, or a parametric paired t-test statistic for enzymatic treatments.
Slice preparation and enzyme application. […]

| increase in spine motility [4] | Molecule | effective dose for influencing axon growth (axon growth) | final score on the BBB test ([1]; after 10 weeks of recovery, first experiment, n=3/group, 10 μg bolus then 10 μg tPA/day for 10 days by minipump, baseline 21) | BBB scores relative to control animals ([1]; second experiment, n=7/group, tPA delivered for 7 days) | time for which tPA maintains enzymatic activity [2] | forelimb use while swimming (forelimb inhibition) [3] | appearance of the contusion site, hematoxylin and eosin staining ([5]; in comparison to control) | integrity of residual white matter at the injury epicenter, solvent blue stain ([5]; versus vehicle) | spine motility after additional plasmin application, superficial layers ([6]; regions where motility is already upregulated, n=88, p>0.5) | spine motility after plasmin treatment, middle regions ([6]; regions where motility is unchanged by deprivation, n=60, p<0.0001) |
| --- | --- | --- | --- | --- | --- | --- | --- | --- | --- | --- |
|  | O=c1onc2cnc3ccccc3n12 [ODQ] | about 10 uM |  |  |  |  |  |  |  |  |
| 17% | tissue plasminogen activator [tPA] |  | ~9 | improved BBB scores | up to 10 days | much less than control animals | remarkably clean | significantly protected the integrity of the residual white matter |  |  |
| 21% | B1 |  |  |  |  |  |  |  | unaffected | significantly increased |
